Experiments:
[1] = biological target: T1, MEK1 (Homo sapiens, UniProt Q02750); experiment: MEK1-inhibiting activity, fluorescent polarization method (CRAF/MEK1/ERK2 cascade, IMAP); format: biochemical; settings: Table 3; read-out: MEK1 IC50
T1 construct: purchased Thermo Fisher Scientific Inc. (MEK1, CRAF); Carna Biosciences, Inc. (ERK2)
Description: The MEK1-inhibiting activity of the compounds listed in Table 3 below were evaluated by the fluorescent polarization method as described below.

[2] = biological target: T2, BRAF (Homo sapiens, UniProt P15056); experiment: BRAF-inhibiting activity, time-resolved fluorescence-fluorescence resonance energy transfer assay; format: biochemical; settings: read-out: BRAF IC50; Table 3
T2 construct: purchased Eurofins Genomics KK; (BRAF); Thermo Fisher Scientific Inc. (MEK1)
Description: The BRAF-inhibiting activity of the compounds listed in Table 3 below was evaluated by the time-resolved fluorescence-fluorescence resonance energy transfer assay as described below.

[3] = system: A549; experiment: Cell proliferation-inhibiting activity (ATP in viable cells, CellTiter-Glo), A549; format: cell-based, human; settings: A549, 96 h; human lung cancer cells, 4 days; read-out: A549 IC50
[4] = system: Calu-6; experiment: Cell proliferation-inhibiting activity (ATP in viable cells, CellTiter-Glo), Calu-6; format: cell-based, human; settings: Calu-6, 96 h; human lung cancer cells, 4 days; read-out: Calu-6 IC50
[5] = system: NCI-H2122; experiment: Cell proliferation-inhibiting activity (ATP in viable cells, CellTiter-Glo), NCI-H2122; format: cell-based, human; settings: NCI-H2122, 96 h; human lung cancer cells, 4 days; read-out: NCI-H2122 IC50
[6] = Human liver microsome stability; format: in vitro ADME; settings: human liver microsomes, pH 7.4

T1 sequence (Q02750 whole entry): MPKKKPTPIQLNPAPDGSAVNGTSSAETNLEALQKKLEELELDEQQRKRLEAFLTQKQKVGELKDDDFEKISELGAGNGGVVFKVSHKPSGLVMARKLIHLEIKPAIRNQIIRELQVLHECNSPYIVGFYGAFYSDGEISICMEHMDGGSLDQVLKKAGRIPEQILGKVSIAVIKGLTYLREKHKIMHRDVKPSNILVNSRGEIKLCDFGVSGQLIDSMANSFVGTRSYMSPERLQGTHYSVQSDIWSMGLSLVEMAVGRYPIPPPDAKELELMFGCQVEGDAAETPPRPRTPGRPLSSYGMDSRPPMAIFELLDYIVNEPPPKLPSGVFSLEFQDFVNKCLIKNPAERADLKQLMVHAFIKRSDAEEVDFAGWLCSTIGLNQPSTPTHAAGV
T2 sequence (P15056 417-766 limits assumed): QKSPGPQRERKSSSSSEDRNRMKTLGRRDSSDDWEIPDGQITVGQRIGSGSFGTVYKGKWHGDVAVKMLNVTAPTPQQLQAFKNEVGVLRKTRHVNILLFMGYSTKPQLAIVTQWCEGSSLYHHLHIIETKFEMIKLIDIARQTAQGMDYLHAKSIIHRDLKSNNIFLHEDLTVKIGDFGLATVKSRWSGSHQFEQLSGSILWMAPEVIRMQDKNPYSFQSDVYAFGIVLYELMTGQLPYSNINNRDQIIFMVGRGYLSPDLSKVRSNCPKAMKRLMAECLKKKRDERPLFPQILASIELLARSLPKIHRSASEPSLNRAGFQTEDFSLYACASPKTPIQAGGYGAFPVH

Q: What does the source list for CC(C)ONC(=O)c1cc(Cc2ccnc(NS(=O)(=O)NC3(C)CCC3)c2F)c(F)c(F)c1Nc1ccc(I)cc1F [Compound A-12, 3,4-Difluoro-2-(2-fluoro-4-iodoanilino)-5-[[3-fluoro-2-[(1-methylcyclobutyl)sulfamoylamino]pyridin-4-yl]methyl]-N-propan-2-yloxybenzamide]?
A: IC50 [1]: 13 nM; IC50 [2]: 6 nM; IC50 [3]: 6 nM; IC50 [4]: 18 nM; IC50 [5]: 5 nM; microsomal CLint at 0.99 µM [6]: 121 µL/min/mg

Q: For CNS(=O)(=O)Nc1cccc(Cc2cc(C(=O)NC3CC3)c(Nc3ccc(I)cc3F)n(C)c2=O)c1F [Compound K-4, N-Cyclopropyl-2-(2-fluoro-4-iodoanilino)-5-[[2-fluoro-3-(methylsulfamoylamino)phenyl]methyl]-1-methyl-6-oxopyridine-3-carboxamide], which IC50 [1] is on record?
A: 106 nM

Q: And the IC50 [2]?
A: 11 nM

Q: And the IC50 [3]?
A: 6 nM

Q: And the IC50 [4]?
A: 25 nM

Q: What about the IC50 [5] of the same compound?
A: 5 nM

Q: What about the microsomal CLint at 0.99 µM [6] of the same compound?
A: 129 µL/min/mg

Q: Which IC50 [1] does the source give for Cn1c(Nc2ccc(I)cc2F)c(C(=O)NOC(C)(C)C)cc(Cc2cccc(NS(=O)(=O)C3(C)CC3)c2F)c1=O [Compound K-12, 2-(2-Fluoro-4-iodoanilino)-5-[2-fluoro-3-[(1-methylcyclopropyl)sulfonylamino]phenyl]methyl]-1-methyl-N-[(2-methylpropan-2-yl)oxyl-6-oxo pyridine-3-carboxamide] here?
A: 10 nM

Q: What about the IC50 [2] of the same compound?
A: 14 nM

Q: And the IC50 [3]?
A: 7 nM

Q: And the IC50 [4]?
A: 27 nM

Q: What about the IC50 [5] of the same compound?
A: 6 nM

Q: And the microsomal CLint at 0.99 µM [6]?
A: 546 µL/min/mg

Q: What does the source list for CC1(S(=O)(=O)Nc2cccc(Cc3cc(C(N)=O)c(Nc4ccc(I)cc4F)c(F)c3F)c2F)CC1 [Compound E-16, 3,4-Difluoro-2-(2-fluoro-4-iodoanilino)-5-[[2-fluoro-3-[(1-methylcyclopropyl)sulfonylamino]phenyl]methyl]benzamide]?
A: IC50 [1]: 352 nM; IC50 [2]: 12 nM; IC50 [3]: 33 nM; IC50 [4]: 87 nM; IC50 [5]: 7 nM; microsomal CLint at 0.99 µM [6]: < 1 µL/min/mg

Q: For CNS(=O)(=O)Nc1nccc(Cc2cc(C(N)=O)c(Nc3ccc(I)cc3F)cc2F)c1F [Compound I-1, 4-fluoro-2-(2-fluoro-4-iodoanilino)-5-[[3-fluoro-2-(methylsulfamoylamino)pyridin-4-yl]methyl]benzamide], which IC50 [1] is on record?
A: 25 nM

Q: What about the IC50 [2] of the same compound?
A: 3 nM

Q: And the IC50 [3]?
A: 5 nM

Q: And the IC50 [4]?
A: 15 nM

Q: What about the IC50 [5] of the same compound?
A: 3 nM

Q: What about the microsomal CLint at 0.99 µM [6] of the same compound?
A: 19 µL/min/mg

Q: What does the source list for NC(=O)c1cc(Cc2ccnc(NS(=O)(=O)NCCF)c2F)c(F)c(F)c1Nc1ccc(I)cc1F [Compound A-42, 3,4-difluoro-5-[[3-fluoro-2-(2-fluoroethylsulfamoylamino)pyridin-4-yl]methyl]-2-(2-fluoro-4-iodoanilino)benzamide]?
A: IC50 [1]: 18 nM; IC50 [2]: 6 nM; IC50 [3]: 9 nM; IC50 [4]: 68 nM; IC50 [5]: 7 nM; microsomal CLint at 0.99 µM [6]: 6 µL/min/mg

Q: Which results are given for CC(C)(C)NS(=O)(=O)Nc1nccc(Cc2cc(C(N)=O)c(Nc3ccc(I)cc3F)c(F)c2F)c1F [Compound A-37, 5-[[2-(tert-Butylsulfamoylamino)-3-fluoropyridin-4-yl]methyl]-3,4-difl uoro-2-(2-fluoro-4-iodoanilino)benzamide]?
A: IC50 [1]: 50 nM; IC50 [2]: 7 nM; IC50 [3]: 21 nM; IC50 [4]: 26 nM; IC50 [5]: 7 nM; microsomal CLint at 0.99 µM [6]: 10 µL/min/mg

Q: For CCNS(=O)(=O)Nc1cccc(Cc2cc(C(=O)NC3CC3)c(Nc3ccc(I)cc3F)n(C)c2=O)c1F [Compound K-13, N-Cyclopropyl-5-[[3-(ethylsulfamoylamino)-2-fluorophenyl]methyl]-2-(2-fluoro-4-iodoanilino)-1-methyl-6-oxopyridine-3-carboxamide], which IC50 [1] is on record?
A: 115 nM

Q: What about the IC50 [2] of the same compound?
A: 9 nM

Q: What about the IC50 [3] of the same compound?
A: 18 nM

Q: What about the IC50 [4] of the same compound?
A: 53 nM

Q: And the IC50 [5]?
A: 13 nM

Q: What about the microsomal CLint at 0.99 µM [6] of the same compound?
A: 321 µL/min/mg

Q: Which IC50 [1] does the source give for CC1(NS(=O)(=O)Nc2nccc(Cc3cc(C(N)=O)c(Nc4ccc(I)cc4F)c(F)c3F)c2F)CCC1 [Compound A-35, 3,4-difluoro-2-(2-fluoro-4-iodoanilino)-5-[[3-fluoro-2-[(1-methylcyclobutyl)sulfamoylamino]pyridin-4-yl]methyl]benzamide] here?
A: 66 nM

Q: What about the IC50 [2] of the same compound?
A: 28 nM

Q: And the IC50 [3]?
A: 21 nM

Q: And the IC50 [4]?
A: 34 nM

Q: What about the IC50 [5] of the same compound?
A: 4 nM

Q: What about the microsomal CLint at 0.99 µM [6] of the same compound?
A: 15 µL/min/mg

Q: Which results are given for CNC(=O)c1cc(Cc2ccnc(NS(=O)(=O)NC)c2F)c(F)c(F)c1Nc1ccc(I)cc1F [Compound A-7, 3,4-Difluoro-2-(2-fluoro-4-iodoanilino)-5-[[3-fluoro-2-(methylsulfamoylamino)pyridin-4-yl]methyl]-N-methylbenzamide]?
A: IC50 [1]: 18 nM; IC50 [2]: 5 nM; IC50 [3]: 2 nM; IC50 [4]: 18 nM; IC50 [5]: 1 nM; microsomal CLint at 0.99 µM [6]: 28 µL/min/mg

Q: For NC(=O)c1cc(Cc2ccnc(NS(=O)(=O)NC3CC3)c2F)c(F)c(F)c1Nc1ccc(I)cc1Cl [Compound B-11, 2-(2-Chloro-4-iodoanilino)-5-[[2-(cyclopropylsulfamoylamino)-3-fluor opyridin-4-yl]methyl]-3,4-difluorobenzamide], which IC50 [1] is on record?
A: 19 nM

Q: And the IC50 [2]?
A: 3 nM

Q: And the IC50 [3]?
A: 18 nM

Q: What about the IC50 [4] of the same compound?
A: 43 nM

Q: What about the IC50 [5] of the same compound?
A: 16 nM

Q: What about the microsomal CLint at 0.99 µM [6] of the same compound?
A: 26 µL/min/mg

Q: Which IC50 [1] does the source give for COCCNS(=O)(=O)Nc1nccc(Cc2cc(C(=O)NOC)c(Nc3ccc(I)cc3F)c(F)c2F)c1F [Compound A-14, 3,4-Difluoro-2-(2-fluoro-4-iodoanilino)-5-[[3-fluoro-2-(2-methoxyethylsulfamoylamino)pyridin-4-yl]methyl]-N-methoxybenzamide] here?
A: 2 nM

Q: And the IC50 [2]?
A: 3 nM

Q: And the IC50 [3]?
A: 11 nM

Q: What about the IC50 [4] of the same compound?
A: 27 nM

Q: And the IC50 [5]?
A: 1 nM

Q: And the microsomal CLint at 0.99 µM [6]?
A: 39 µL/min/mg

Q: For CC(C)S(=O)(=O)Nc1cccc(Oc2cncc(Nc3ccc(I)cc3F)c2C(N)=O)c1 [Ref-3, 3-(2-Fluoro-4-iodoanilino)-5-[3-(propan-2-ylsulfonylamino)phenoxy]py ridine-4-carboxamide, reference compound], which IC50 [1] is on record?
A: 5 nM

Q: What about the IC50 [2] of the same compound?
A: 12 nM

Q: And the IC50 [3]?
A: 2 nM

Q: And the IC50 [4]?
A: 10 nM

Q: And the IC50 [5]?
A: 1 nM

Q: And the microsomal CLint at 0.99 µM [6]?
A: 11 µL/min/mg

Q: Which results are given for CCNS(=O)(=O)Nc1cccc(Cc2cc(C(N)=O)c(Nc3ccc(I)cc3F)n(C)c2=O)c1F [Compound K-2, 5-[13-(Ethylsulfamoylamino)-2-fluorophenyl|methyl]-2-(2-fluoro-4-iodoanilino)-1-methyl-6-oxopyridine-3-carboxamide]?
A: IC50 [1]: 73 nM; IC50 [2]: 4 nM; IC50 [3]: 6 nM; IC50 [4]: 27 nM; IC50 [5]: 6 nM; microsomal CLint at 0.99 µM [6]: 234 µL/min/mg

Q: Which results are given for CNS(=O)(=O)Nc1nccc(Cc2cc(C(N)=O)c(Nc3ccc(I)cc3F)n(C)c2=O)c1F [Compound J-1, 2-(2-fluoro-4-iodoanilino)-5-[[3-fluoro-2-(methylsulfamoylamino)pyridin-4-yl]methyl]-1-methyl-6-oxopyridine-3-carboxamide]?
A: IC50 [1]: 58 nM; IC50 [2]: 4 nM; IC50 [3]: 38 nM; IC50 [4]: 29 nM; IC50 [5]: 8 nM; microsomal CLint at 0.99 µM [6]: 11 µL/min/mg

Q: For CNS(=O)(=O)Nc1nccc(Cc2cc(C(=O)NOC(C)(C)C)c(Nc3ccc(I)cc3F)n(C)c2=O)c1F [Compound J-10, 2-(2-fluoro-4-iodoanilino)-5-[[3-fluoro-2-(methylsulfamoylamino)pyridin-4-yl]methyl]-1-methyl-N-[(2-methylpropan-2-yl)oxy]-6-oxop yridine-3-carboxamide], which IC50 [1] is on record?
A: 42 nM

Q: What about the IC50 [2] of the same compound?
A: 10 nM

Q: And the IC50 [3]?
A: 8 nM

Q: What about the IC50 [4] of the same compound?
A: 13 nM

Q: And the IC50 [5]?
A: 2 nM

Q: What about the microsomal CLint at 0.99 µM [6] of the same compound?
A: 28 µL/min/mg

Reference: EP4725941A1, “ARYLAMIDE DERIVATIVE HAVING ANTITUMOR ACTIVITY” (priority 2020, dated 2021)
